Like-named read-outs stand apart in the source and are kept apart here.
Columns and labels:
human EGFR = molecular target: T1, human EGFR (Homo sapiens, UniProt P00533); type: biochemical
T1 construct: purchased Reaction Biology

[1] = tested on: phosphorylated ERK1/2 (pERK) in MKN1 cells; test: cells; type: cell-based; conditions: Homo sapiens
in vivo = conditions: CD-1, mouse, pH 5; for clearance: iv, 3 mg/kg; for AUC(0-t) / bioavailability: po, 100 mg/kg
[2] = Human liver microsome intrinsic clearance; type: in vitro ADME; conditions: human liver microsomes
[3] = tested on: pERK in MIA PaCa-2 tumors; test: Tumor pharmacodynamic (pERK) study in MIA PaCa-2 mouse xenograft
[4] = tested on: MIA PaCa-2 tumor mouse xenograft; test: Antitumor efficacy study in MIA PaCa-2 mouse xenograft; conditions: single agent MRTX849, 10 mg/kg qd, 25 days
[5] = MKN-1, In-Cell Western Assay measuring pERK, read-out: MKN1 Cell IC50
[6] = MKN-1, read-out: MKN1 Cell IC50
[7] = PO CD-1 mice, 100 mg/kg, 0.5% MC (4000 cps)/0.2% Tween80 in water

T1 sequence (P00533 25-1210): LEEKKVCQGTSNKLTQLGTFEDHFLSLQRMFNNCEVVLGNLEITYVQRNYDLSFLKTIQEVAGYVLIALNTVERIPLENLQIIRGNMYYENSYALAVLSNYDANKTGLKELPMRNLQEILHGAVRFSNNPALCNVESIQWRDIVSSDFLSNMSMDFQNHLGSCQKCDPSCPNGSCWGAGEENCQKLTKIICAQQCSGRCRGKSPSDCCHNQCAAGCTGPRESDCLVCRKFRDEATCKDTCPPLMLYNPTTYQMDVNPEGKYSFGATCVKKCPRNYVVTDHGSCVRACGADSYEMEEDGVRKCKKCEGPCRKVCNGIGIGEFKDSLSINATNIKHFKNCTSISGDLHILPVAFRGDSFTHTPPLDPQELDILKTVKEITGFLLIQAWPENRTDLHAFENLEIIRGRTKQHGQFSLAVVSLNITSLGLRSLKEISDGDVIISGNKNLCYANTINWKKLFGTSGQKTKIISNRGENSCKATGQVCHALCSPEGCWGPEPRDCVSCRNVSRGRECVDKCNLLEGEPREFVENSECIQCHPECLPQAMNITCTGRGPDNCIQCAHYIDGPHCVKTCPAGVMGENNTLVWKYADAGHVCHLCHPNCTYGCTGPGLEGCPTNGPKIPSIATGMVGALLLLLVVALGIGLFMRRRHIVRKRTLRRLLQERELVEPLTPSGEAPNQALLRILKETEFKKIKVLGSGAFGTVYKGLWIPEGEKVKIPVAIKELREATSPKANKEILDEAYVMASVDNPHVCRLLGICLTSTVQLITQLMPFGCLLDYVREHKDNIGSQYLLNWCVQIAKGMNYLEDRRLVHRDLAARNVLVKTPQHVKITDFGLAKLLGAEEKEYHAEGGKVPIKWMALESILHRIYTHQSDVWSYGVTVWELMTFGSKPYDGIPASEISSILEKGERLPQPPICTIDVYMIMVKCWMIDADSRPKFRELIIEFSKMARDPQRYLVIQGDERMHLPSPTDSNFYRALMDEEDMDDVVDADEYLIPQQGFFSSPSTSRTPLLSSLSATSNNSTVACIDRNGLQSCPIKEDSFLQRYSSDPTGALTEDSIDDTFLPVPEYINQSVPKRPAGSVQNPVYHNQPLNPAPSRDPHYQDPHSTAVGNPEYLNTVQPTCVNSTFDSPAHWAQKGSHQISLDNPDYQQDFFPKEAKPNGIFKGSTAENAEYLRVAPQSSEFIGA

Which IC50 (human EGFR; 10 μM ATP) does the source give for `COc1cc2cnnc(N[C@H](C)c3ccccc3)c2cc1OC` [Compound 6] here?
The IC50 was greater than 10 µM.

What about the IC50 [1, 5] of the same compound?
Its IC50 is greater than 10000 nM.

Which IC50 (human EGFR; 10 μM ATP) does the source give for `COc1cc2cnnc(N[C@H](C)c3cccc4ccccc34)c2cc1OC` [Compound 7] here?
Its IC50 is greater than 10 µM.

What about the IC50 [1, 5] of the same compound?
Its IC50 is greater than 10000 nM.

With `COc1cc2cnnc(N[C@H](C)c3cccc(C(F)(F)F)c3)c2cc1OC` [Compound 8] as the compound, how does the IC50 (human EGFR; 10 μM ATP) read?
The IC50 was greater than 10 µM.

What about the IC50 [1, 6] of the same compound?
Its IC50 is 958 nM.

What does the source list for `COc1cc2cnnc(N[C@H](C)c3ccccc3C)c2cc1OC` [Compound 9]?
IC50 (human EGFR; 10 μM ATP): > 10 µM; IC50 [1, 5]: > 10000 nM

Which IC50 (human EGFR; 10 μM ATP) does the source give for `COc1cc2cnnc(N[C@H](C)c3cccc(C(F)(F)F)c3C)c2cc1OC` [Compound 10] here?
Its IC50 is greater than 10 µM.

With `CNCc1ccccc1-c1csc([C@@H](C)Nc2nncc3cc(OC)c(OC)cc23)c1` [Compound 11] as the compound, how does the IC50 (human EGFR) read?
The IC50 was greater than 10 µM.

Which clearance (in vivo) does the source give for `Cc1c([C@@H](C)Nc2nnc(C)c3ccc(N4CCNCC4)cc23)cccc1C(F)(F)F` [Compound 15] here?
Its clearance is 85 mL/min/kg.

What about the AUC(0-t) (in vivo) of the same compound?
Its AUC(0-t) is 1300 ng·h/mL.

And the bioavailability (in vivo)?
The bioavailability was 11%.

Which IC50 [1, 6] does the source give for `Cc1c([C@@H](C)Nc2nnc(C)c3ccc(C4CCNCC4)cc23)cccc1C(F)(F)F` [Compound 16] here?
Its IC50 is 183 nM.

With `Cc1c([C@@H](C)Nc2nnc(C(F)(F)F)c3ccc(N4CCNCC4)cc23)cccc1C(F)(F)F` [Compound 18] as the compound, how does the IC50 [1, 5] read?
The IC50 was greater than 10000 nM.

With `COc1nnc(N[C@H](C)c2cccc(C(F)(F)F)c2C)c2cc(N3CCNCC3)ccc12` [Compound 19] as the compound, how does the IC50 [1, 5] read?
Its IC50 is greater than 10000 nM.

With `Cc1c([C@@H](C)Nc2n[nH]c(=O)c3ccc(N4CCNCC4)cc23)cccc1C(F)(F)F` [Compound 21] as the compound, how does the IC50 [1, 6] read?
Its IC50 is 114 nM.

For `Cc1c([C@@H](C)Nc2nn(C)c(=O)c3ccc(N4CCNCC4)cc23)cccc1C(F)(F)F` [Compound 22], which IC50 [1, 6] is on record?
The IC50 was 881 nM.

For `Cc1c([C@@H](C)Nc2nnc(C)c3cnc(N4CCNCC4)cc23)cccc1C(F)(F)F` [Compound 23], which clearance (in vivo) is on record?
The clearance was 52 mL/min/kg.

What about the AUC(0-t) (in vivo) of the same compound?
Its AUC(0-t) is 9970 ng·h/mL.

What about the bioavailability (in vivo) of the same compound?
Its bioavailability is 44%.

And the Eh (mouse, IV 3 mg/kg)?
The Eh was 0.58.

What about the CLint scaled [2] of the same compound?
The CLint scaled was 27 mL/min/kg.

What does the source list for `Cc1c([C@@H](C)Nc2nnc(C)c3cnc(N4CCOCC4)cc23)cccc1C(F)(F)F` [Compound 24]?
clearance (in vivo): 17 mL/min/kg; tumor pERK modulation, single agent ([3]; 24 at 100 mg/kg bid PO, 21 days, 3 h after last dose): No modulation; reduction in tumor pERK, combination ([3]; 24 at 100 mg/kg bid in combination with MRTX849 10 mg/kg qd, PO, 21 days, 3 h after last dose): 69%; mPK PO Dosing %F [7]: ~100%; mPK PO Dosing AUC0-last [7]: 130.318 µg·h/mL; IC50 [1, 5]: 26 nM; CLint scaled [2]: 114 mL/min/kg

For `Cc1nnc(N[C@H](C)c2cccc(C(F)(F)F)c2F)c2cc(N3CCOCC3)ncc12` [Compound 25], which CLint scaled [2] is on record?
Its CLint scaled is 214 mL/min/kg.

Which IC50 [1, 6] does the source give for `Cc1nnc(N[C@H](C)c2cccc(C(F)(F)F)n2)c2cc(N3CCOCC3)ncc12` [Compound 26] here?
Its IC50 is 185 nM.

What about the CLint scaled [2] of the same compound?
Its CLint scaled is 206 mL/min/kg.

For `Cc1nnc(N[C@H](C)c2cc(N)cc(C(F)(F)F)n2)c2cc(N3CCOCC3)ncc12` [Compound 27], which CLint scaled [2] is on record?
The CLint scaled was 18 mL/min/kg.

Which CLint scaled [2] does the source give for `Cc1ncccc1[C@@H](C)Nc1nnc(C)c2cnc(N3CCOCC3)cc12` [Compound 28] here?
The CLint scaled was 21 mL/min/kg.

Which IC50 [1, 6] does the source give for `Cc1nn(C)cc1[C@@H](C)Nc1nnc(C)c2cnc(N3CCOCC3)cc12` [Compound 29] here?
Its IC50 is 3280 nM.

What about the CLint scaled [2] of the same compound?
The CLint scaled was 15 mL/min/kg.

For `Cc1nnc(N[C@H](C)c2cn(C)nc2C(F)(F)F)c2cc(N3CCOCC3)ncc12` [Compound 30], which IC50 [1, 6] is on record?
The IC50 was 1150 nM.

And the CLint scaled [2]?
The CLint scaled was 37 mL/min/kg.

Which results are given for `Cc1c(Br)cccc1[C@@H](C)Nc1nnc(C)c2cnc(N3CCOCC3)cc12` [Compound 31]?
IC50 [1, 6]: 114 nM; CLint scaled [2]: 396 mL/min/kg

With `Cc1c([C@@H](C)Nc2nnc(C)c3cnc(N4CCOCC4)cc23)cccc1S(C)(=O)=O` [Compound 33] as the compound, how does the CLint scaled [2] read?
The CLint scaled was 7.9 mL/min/kg.

For `Cc1nnc(N[C@H](C)c2cccc(C#N)c2)c2cc(N3CCOCC3)ncc12` [Compound 34], which CLint scaled [2] is on record?
The CLint scaled was 505 mL/min/kg.

For `Cc1c(C#N)cccc1[C@@H](C)Nc1nnc(C)c2cc(F)c(N3CCOCC3)cc12` [Compound 35], which IC50 [1, 5] is on record?
The IC50 was 120 nM.

Which IC50 [1, 6] does the source give for `Cc1c(C#N)cccc1[C@@H](C)Nc1nnc(C)c2cc(Cl)c(N3CCOCC3)cc12` [Compound 36] here?
The IC50 was 286 nM.

Which IC50 [1, 5] does the source give for `Cc1c(C#N)cccc1[C@@H](C)Nc1nnc(C)c2cc(C#N)c(N3CCOCC3)cc12` [Compound 37] here?
The IC50 was 490 nM.

Which “tumor pERK modulation, single agent” value ([3]; MRTX849 at 10 mg/kg qd PO, 21 days) does the source give for `C=C(F)C(=O)N1CCN(c2nc(OC[C@@H]3CCCN3C)nc3c2CCN(c2cccc4cccc(Cl)c24)C3)C[C@@H]1CC#N` [MRTX849, adagrasib, reference compound] here?
The value was “No modulation”.

What about the “plasma concentration of MRTX849” value ([3]; MRTX849 dosed in combination with MRTX0902) of the same compound?
The value was “remained unchanged”.

And the “tumor growth inhibition (TGI)” value [4]?
Its value is 94%.

From PMC9340770 (Journal of Medicinal Chemistry, 2022)
